# Measurements published in the kinase profiling compilation of Christmann-Franck et al. (2016).
# Columns and labels:
# Assay in all cases: KINOMEscan competition binding
# Details in all cases: compound 10.0 µM
# BMPR2 (human) = BMPR2 (human) (UniProt Q13873)
# CDK13 (human) = CDK13 (human) (UniProt Q14004)
# CHEK2 (human) = CHEK2 (human) (UniProt O96017)
# CRK2 (P.falciparum) = CRK2 (P.falciparum) (UniProt P61075)
# CSF1R (human) = CSF1R (human) (UniProt P07333)
# CSNK1E (human) = CSNK1E (human) (UniProt P49674)
# CSNK1G2 (human) = CSNK1G2 (human) (UniProt P78368)
# DCLK2 (human) = DCLK2 (human) (UniProt Q8N568)
# EPHB3 (human) = EPHB3 (human) (UniProt P54753)
# EPHB6 (human) = EPHB6 (human) (UniProt O15197)
# ERBB3 (human) = ERBB3 (human) (UniProt P21860)
# [1] = system: FLT3 (human), P36888 [D835H]
# GRK7 (human) = GRK7 (human) (UniProt Q8WTQ7)
# Chain of GRK7 (human) (Q8WTQ7 whole entry, looked up): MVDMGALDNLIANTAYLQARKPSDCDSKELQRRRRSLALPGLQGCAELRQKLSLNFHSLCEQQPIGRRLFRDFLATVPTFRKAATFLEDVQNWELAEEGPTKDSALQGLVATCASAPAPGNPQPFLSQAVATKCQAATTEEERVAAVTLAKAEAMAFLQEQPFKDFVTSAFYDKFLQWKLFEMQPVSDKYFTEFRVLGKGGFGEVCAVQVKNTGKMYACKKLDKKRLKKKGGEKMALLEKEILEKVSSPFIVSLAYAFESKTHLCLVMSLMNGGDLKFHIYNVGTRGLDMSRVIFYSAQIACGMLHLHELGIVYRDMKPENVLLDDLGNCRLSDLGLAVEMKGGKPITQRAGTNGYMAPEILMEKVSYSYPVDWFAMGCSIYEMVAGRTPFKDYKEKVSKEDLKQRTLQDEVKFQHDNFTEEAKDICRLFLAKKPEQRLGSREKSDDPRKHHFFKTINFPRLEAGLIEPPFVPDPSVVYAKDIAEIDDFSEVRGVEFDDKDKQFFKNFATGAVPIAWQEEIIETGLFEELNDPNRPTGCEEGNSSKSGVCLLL
# HIPK2 (human) = HIPK2 (human) (UniProt Q9H2X6)
# INSR (human) = INSR (human) (UniProt P06213)
# Chain of INSR (human) (P06213 whole entry, looked up): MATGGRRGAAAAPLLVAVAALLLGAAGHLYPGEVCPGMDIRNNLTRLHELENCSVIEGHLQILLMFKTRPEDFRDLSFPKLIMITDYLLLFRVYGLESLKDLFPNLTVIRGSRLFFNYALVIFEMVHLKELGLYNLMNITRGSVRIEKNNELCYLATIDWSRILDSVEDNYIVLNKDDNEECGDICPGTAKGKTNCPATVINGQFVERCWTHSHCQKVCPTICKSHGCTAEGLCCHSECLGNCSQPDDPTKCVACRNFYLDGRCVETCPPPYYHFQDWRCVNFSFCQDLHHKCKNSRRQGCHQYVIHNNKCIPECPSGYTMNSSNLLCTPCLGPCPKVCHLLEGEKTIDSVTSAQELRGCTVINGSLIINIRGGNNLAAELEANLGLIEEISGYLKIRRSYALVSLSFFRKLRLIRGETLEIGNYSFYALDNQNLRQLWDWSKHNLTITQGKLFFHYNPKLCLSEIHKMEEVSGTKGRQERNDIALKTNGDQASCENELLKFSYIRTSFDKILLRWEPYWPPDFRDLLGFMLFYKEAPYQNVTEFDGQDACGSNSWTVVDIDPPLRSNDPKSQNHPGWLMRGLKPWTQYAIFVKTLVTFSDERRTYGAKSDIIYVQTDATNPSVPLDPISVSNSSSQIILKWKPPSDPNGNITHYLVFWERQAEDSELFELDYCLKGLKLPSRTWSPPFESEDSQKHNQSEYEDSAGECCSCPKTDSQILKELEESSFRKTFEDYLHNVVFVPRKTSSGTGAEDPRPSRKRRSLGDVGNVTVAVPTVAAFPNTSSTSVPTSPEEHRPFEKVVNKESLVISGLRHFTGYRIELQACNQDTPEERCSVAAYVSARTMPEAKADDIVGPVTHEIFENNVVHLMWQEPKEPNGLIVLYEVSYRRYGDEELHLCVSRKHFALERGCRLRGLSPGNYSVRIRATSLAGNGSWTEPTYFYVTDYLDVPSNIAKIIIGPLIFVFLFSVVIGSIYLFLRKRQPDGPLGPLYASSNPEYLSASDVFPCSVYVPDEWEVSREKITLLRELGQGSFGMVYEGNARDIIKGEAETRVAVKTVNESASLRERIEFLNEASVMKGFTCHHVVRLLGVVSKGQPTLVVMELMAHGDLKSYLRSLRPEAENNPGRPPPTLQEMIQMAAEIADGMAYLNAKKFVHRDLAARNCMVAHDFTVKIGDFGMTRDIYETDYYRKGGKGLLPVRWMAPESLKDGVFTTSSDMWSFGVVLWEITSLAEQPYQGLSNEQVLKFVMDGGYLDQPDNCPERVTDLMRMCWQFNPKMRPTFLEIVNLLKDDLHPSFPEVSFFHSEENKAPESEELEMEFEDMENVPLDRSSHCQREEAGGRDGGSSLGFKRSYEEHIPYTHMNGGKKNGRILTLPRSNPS
# IRAK3 (human) = IRAK3 (human) (UniProt Q9Y616)
# LTK (human) = LTK (human) (UniProt P29376)
# LYN (human) = LYN (human) (UniProt P07948)
# MAP3K11 (human) = MAP3K11 (human) (UniProt Q16584)
# MAP4K2 (human) = MAP4K2 (human) (UniProt Q12851)
# MAPK3 (human) = MAPK3 (human) (UniProt P27361)
# MAPK6 (human) = MAPK6 (human) (UniProt Q16659)
# MARK2 (human) = MARK2 (human) (UniProt Q7KZI7)
# MAST1 (human) = MAST1 (human) (UniProt Q9Y2H9)
# Chain of MAST1 (human) (Q9Y2H9 whole entry, looked up): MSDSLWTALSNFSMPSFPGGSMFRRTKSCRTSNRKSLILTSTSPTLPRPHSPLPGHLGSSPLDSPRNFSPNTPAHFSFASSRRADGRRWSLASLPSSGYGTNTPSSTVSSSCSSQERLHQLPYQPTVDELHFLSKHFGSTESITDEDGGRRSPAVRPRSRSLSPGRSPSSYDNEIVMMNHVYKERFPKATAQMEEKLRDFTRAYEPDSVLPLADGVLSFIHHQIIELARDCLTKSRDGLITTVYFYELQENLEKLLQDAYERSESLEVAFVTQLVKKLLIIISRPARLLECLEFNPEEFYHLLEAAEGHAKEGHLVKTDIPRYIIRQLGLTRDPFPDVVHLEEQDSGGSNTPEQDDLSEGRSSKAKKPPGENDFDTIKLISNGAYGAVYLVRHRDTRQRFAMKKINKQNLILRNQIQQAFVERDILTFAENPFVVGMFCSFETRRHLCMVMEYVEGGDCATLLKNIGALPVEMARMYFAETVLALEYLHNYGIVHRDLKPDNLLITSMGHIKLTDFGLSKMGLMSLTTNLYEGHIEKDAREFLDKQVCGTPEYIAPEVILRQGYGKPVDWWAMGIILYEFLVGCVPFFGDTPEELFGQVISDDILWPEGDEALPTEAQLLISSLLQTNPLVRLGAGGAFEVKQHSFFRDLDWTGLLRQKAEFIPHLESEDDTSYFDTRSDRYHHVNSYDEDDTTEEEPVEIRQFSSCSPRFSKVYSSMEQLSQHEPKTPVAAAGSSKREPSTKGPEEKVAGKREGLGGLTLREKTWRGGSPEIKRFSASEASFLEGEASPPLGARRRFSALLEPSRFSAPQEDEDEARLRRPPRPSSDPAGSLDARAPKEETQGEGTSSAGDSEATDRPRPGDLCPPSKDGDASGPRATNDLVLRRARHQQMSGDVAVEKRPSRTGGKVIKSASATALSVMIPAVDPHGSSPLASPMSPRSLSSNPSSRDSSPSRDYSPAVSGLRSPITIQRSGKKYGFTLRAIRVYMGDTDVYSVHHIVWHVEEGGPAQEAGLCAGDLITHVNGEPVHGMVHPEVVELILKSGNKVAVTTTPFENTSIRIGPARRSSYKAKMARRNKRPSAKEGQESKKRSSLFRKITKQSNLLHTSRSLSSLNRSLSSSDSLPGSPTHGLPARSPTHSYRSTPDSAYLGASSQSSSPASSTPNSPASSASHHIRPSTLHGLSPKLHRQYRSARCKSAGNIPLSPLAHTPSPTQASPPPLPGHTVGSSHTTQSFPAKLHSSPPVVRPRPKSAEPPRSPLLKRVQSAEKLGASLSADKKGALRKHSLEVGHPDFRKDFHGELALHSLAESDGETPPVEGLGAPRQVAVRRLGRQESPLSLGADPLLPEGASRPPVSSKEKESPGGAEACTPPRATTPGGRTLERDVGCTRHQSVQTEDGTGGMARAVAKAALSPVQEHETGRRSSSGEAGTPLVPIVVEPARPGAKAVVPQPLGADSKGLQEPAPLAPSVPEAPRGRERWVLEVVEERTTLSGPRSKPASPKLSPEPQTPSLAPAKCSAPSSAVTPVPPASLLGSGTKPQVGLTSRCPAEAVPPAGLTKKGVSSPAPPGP
# MET (human) = MET (human) (UniProt P08581)
# [2] = system: MET (human), P08581 [Y1235D]
# NEK3 (human) = NEK3 (human) (UniProt P51956)
# NEK4 (human) = NEK4 (human) (UniProt P51957)
# NUAK2 (human) = NUAK2 (human) (UniProt Q9H093)
# PIK3CG (human) = PIK3CG (human) (UniProt P48736)
# PIM1 (human) = PIM1 (human) (UniProt P11309)
# PIP5K1A (human) = PIP5K1A (human) (UniProt Q99755)
# PKN1 (human) = PKN1 (human) (UniProt Q16512)
# PRKCI (human) = PRKCI (human) (UniProt P41743)
# PRPF4B (human) = PRPF4B (human) (UniProt Q13523)
# Chain of PRPF4B (human) (Q13523 whole entry, looked up): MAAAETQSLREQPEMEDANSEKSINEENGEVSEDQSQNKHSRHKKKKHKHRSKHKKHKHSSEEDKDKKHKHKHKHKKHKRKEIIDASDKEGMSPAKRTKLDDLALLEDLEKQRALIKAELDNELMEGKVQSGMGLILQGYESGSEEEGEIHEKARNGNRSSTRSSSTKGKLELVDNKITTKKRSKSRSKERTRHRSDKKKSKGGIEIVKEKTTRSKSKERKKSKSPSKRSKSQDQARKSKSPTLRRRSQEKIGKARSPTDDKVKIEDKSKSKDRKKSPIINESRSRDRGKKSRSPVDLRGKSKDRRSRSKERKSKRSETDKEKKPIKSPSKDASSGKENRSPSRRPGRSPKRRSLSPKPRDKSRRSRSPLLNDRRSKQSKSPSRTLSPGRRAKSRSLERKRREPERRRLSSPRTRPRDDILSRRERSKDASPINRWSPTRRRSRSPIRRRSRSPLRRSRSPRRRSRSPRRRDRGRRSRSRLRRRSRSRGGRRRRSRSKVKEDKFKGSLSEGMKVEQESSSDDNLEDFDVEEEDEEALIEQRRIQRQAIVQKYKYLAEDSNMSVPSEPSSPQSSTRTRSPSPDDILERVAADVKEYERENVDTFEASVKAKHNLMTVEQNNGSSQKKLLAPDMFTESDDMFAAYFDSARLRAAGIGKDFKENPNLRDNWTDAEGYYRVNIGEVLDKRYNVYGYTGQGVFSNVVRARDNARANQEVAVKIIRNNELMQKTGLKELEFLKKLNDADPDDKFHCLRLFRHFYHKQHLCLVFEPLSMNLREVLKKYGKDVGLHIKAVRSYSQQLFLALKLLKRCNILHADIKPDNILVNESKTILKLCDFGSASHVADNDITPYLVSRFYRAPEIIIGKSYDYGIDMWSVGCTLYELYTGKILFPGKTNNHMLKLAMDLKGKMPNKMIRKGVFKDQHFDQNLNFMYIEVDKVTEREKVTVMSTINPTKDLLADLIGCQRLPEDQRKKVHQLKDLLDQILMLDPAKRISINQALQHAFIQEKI
# RAF1 (human) = RAF1 (human) (UniProt P04049)
# RIOK1 (human) = RIOK1 (human) (UniProt Q9BRS2)
# SNRK (human) = SNRK (human) (UniProt Q9NRH2)
# STK32A (human) = STK32A (human) (UniProt Q8WU08)
# TAOK2 (human) = TAOK2 (human) (UniProt Q9UL54)
# Chain of CHEK2 (human) (O96017 whole entry, looked up): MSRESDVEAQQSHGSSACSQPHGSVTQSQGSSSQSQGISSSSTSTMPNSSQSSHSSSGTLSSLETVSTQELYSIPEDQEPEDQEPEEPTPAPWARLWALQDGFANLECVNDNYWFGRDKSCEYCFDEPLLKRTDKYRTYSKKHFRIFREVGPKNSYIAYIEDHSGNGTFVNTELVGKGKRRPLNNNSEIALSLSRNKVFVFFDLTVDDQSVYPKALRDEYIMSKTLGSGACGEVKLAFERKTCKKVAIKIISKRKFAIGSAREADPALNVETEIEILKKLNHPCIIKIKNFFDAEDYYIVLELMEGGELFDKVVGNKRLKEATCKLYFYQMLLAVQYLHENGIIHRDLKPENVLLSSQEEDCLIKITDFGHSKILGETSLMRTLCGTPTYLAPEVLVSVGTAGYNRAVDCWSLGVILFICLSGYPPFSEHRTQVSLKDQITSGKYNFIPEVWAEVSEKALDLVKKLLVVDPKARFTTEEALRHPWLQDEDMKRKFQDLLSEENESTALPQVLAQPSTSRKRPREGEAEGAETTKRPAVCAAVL
SMILES,"kinase still bound, per cent of control (BMPR2 (human)) [%]","kinase still bound, per cent of control (CDK13 (human)) [%]","kinase still bound, per cent of control (CHEK2 (human)) [%]","kinase still bound, per cent of control (CRK2 (P.falciparum)) [%]","kinase still bound, per cent of control (CSF1R (human)) [%]","kinase still bound, per cent of control (CSNK1E (human)) [%]","kinase still bound, per cent of control (CSNK1G2 (human)) [%]","kinase still bound, per cent of control (DCLK2 (human)) [%]","kinase still bound, per cent of control (EPHB3 (human)) [%]","kinase still bound, per cent of control (EPHB6 (human)) [%]","kinase still bound, per cent of control (ERBB3 (human)) [%]","kinase still bound, per cent of control [1] [%]","kinase still bound, per cent of control (GRK7 (human)) [%]","kinase still bound, per cent of control (HIPK2 (human)) [%]","kinase still bound, per cent of control (INSR (human)) [%]","kinase still bound, per cent of control (IRAK3 (human)) [%]","kinase still bound, per cent of control (LTK (human)) [%]","kinase still bound, per cent of control (LYN (human)) [%]","kinase still bound, per cent of control (MAP3K11 (human)) [%]","kinase still bound, per cent of control (MAP4K2 (human)) [%]",also measured
O=C(Nc1cccc(Nc2ncc(Br)c(NCCc3cnc[nH]3)n2)c1)N1CCCC1,13,0.35,24,100,1.4,70,76,70,100,0.2,41,0.2,34,1.6,27,0.7,66,24,0.75,0.15,"kinase still bound, per cent of control (MAPK3 (human)): 76%; kinase still bound, per cent of control (MAPK6 (human)): 5%; kinase still bound, per cent of control (MARK2 (human)): 0.4%; kinase still bound, per cent of control (MAST1 (human)): 58%; kinase still bound, per cent of control (MET (human)): 4.4%; kinase still bound, per cent of control [2]: 2.4%; kinase still bound, per cent of control (NEK3 (human)): 6.8%; kinase still bound, per cent of control (NEK4 (human)): 9.4%; kinase still bound, per cent of control (NUAK2 (human)): 3.8%; kinase still bound, per cent of control (PIK3CG (human)): 58%; kinase still bound, per cent of control (PIM1 (human)): 87%; kinase still bound, per cent of control (PIP5K1A (human)): 1%; kinase still bound, per cent of control (PKN1 (human)): 0.3%; kinase still bound, per cent of control (PRKCI (human)): 45%; kinase still bound, per cent of control (PRPF4B (human)): 5.3%; kinase still bound, per cent of control (RAF1 (human)): 100%; kinase still bound, per cent of control (RIOK1 (human)): 0%; kinase still bound, per cent of control (SNRK (human)): 100%; kinase still bound, per cent of control (STK32A (human)): 51%; kinase still bound, per cent of control (TAOK2 (human)): 5.3%"
COc1cc2ncnc(-n3nc(-c4ccccn4)nc3N)c2cc1OC,88,17,78,94,52,1.6,1.1,88,56,2.2,9,3.2,11,0.65,91,12,24,48,63,43,"kinase still bound, per cent of control (MAPK3 (human)): 67%; kinase still bound, per cent of control (MAPK6 (human)): 85%; kinase still bound, per cent of control (MARK2 (human)): 53%; kinase still bound, per cent of control (MAST1 (human)): 73%; kinase still bound, per cent of control (MET (human)): 55%; kinase still bound, per cent of control [2]: 40%; kinase still bound, per cent of control (NEK3 (human)): 87%; kinase still bound, per cent of control (NEK4 (human)): 41%; kinase still bound, per cent of control (NUAK2 (human)): 37%; kinase still bound, per cent of control (PIK3CG (human)): 3.1%; kinase still bound, per cent of control (PIM1 (human)): 15%; kinase still bound, per cent of control (PIP5K1A (human)): 6.4%; kinase still bound, per cent of control (PKN1 (human)): 100%; kinase still bound, per cent of control (PRKCI (human)): 55%; kinase still bound, per cent of control (PRPF4B (human)): 93%; kinase still bound, per cent of control (RAF1 (human)): 59%; kinase still bound, per cent of control (RIOK1 (human)): 29%; kinase still bound, per cent of control (SNRK (human)): 47%; kinase still bound, per cent of control (STK32A (human)): 64%; kinase still bound, per cent of control (TAOK2 (human)): 42%"
